Source: US20230391796A1, “GLYCOSIDASE INHIBITORS AND USES THEREOF” (UNIVERSIDAD DE SEVILLA (US) -UNIVERSITY OF SEVILLE (US), priority 2020, published 2023)
Where a name gives a salt, the structure may show the parent alone.

Assays:
[1] = target: β-N-acetylglucosaminidase (from jack bean); test: Inhibition assay against commercial β-N-acetylglucosaminidase (jack bean), p-nitrophenyl N-acetyl-β-D-glucosaminide substrate; type: biochemical; details: pH 5.5, 37° C.; average of three determinations ± s.e.m.; NI = no inhibition detected at 200 μM; read-out: Jack beans Hex
Description: Inhibition Assays Against Commercial β-N-acetylglucosaminidases
Inhibition constant (Ki) values were determined by spectrophotometrically measuring the residual hydrolytic activities of the glycosidases against p-nitrophenyl N-acetyl-β-D-glucosaminide. […] Each assay was performed in phosphate-citrate buffer and the reactions were initiated by addition of the enzyme to a solution of the substrate in the absence or presence of various inhibitor concentrations. The mixture was incubated for 10-30 min at 37° C. and the reaction was quenched by addition of 1 M Na2CO3. Reaction times were appropriate to obtain 10-20% conversion of the substrate in order to achieve linear rates. The absorbance of the resulting mixture was determined at 405 nm. Approximate values of Ki were determined using a fixed concentration of substrate (around the Km value for the different glycosidases) and various inhibitor concentrations. Full Ki determinations and enzyme inhibition mode were determined from the slope of Lineweaver-Burk plots and double reciprocal analysis using a Microsoft Office Excel 2007 program.

[2] = target: T1, Recombinant Human Hexosaminidase A (HexA) (Homo sapiens, UniProt P06865); test: Inhibition assay against rhHexA, 4-methylumbelliferone-N-acetyl-β-D-glucosaminide fluorescence; type: biochemical; details: IC50 for lysosomal hHexA; NI = no inhibition detected at 200 μM
T1 construct: purchased R&D Systems 6237-GH-020
T1 sequence (P06865 89-529): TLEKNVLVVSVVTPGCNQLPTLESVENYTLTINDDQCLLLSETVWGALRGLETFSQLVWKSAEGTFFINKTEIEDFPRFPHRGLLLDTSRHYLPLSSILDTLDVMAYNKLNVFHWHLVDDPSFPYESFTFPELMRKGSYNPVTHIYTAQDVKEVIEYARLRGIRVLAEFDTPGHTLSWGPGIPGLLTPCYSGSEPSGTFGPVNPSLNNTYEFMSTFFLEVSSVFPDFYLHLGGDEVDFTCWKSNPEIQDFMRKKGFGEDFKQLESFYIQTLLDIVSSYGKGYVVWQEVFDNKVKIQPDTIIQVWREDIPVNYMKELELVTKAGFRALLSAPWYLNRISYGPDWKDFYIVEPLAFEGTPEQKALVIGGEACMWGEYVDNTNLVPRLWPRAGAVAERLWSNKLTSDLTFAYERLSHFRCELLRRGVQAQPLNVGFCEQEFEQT
Description: Inhibition Assays Against rhHexA
Human Hexosaminidase A (HexA) enzyme, purchased from R&D Systems (cat# 6237-GH-020), were determined by measuring the fluorescent signal corresponding to the rate of hydrolytic activity against the commercially available artificial substrate, 4-Methylumbelliferone-N-acetyl-β-D-glucosaminide. HexA activity assays were performed in a buffer of 100 mM sodium citrate, 250 NaCl, pH 4.5 and 1.0 nM [HexA], then stopped after 20 minutes with a solution of 1.0 M Tris, pH 9.5 to enhance fluorescent signal. Preliminary experiments have shown that reaction rates are linear for 20 minutes after substrate addition, and that 1.0 M Tris at pH 9.5 is sufficient for stopping activity, as signal is stable after stopping. Inhibition assays were run in the presence or absence of various concentrations of inhibitors and at a fixed substrate concentration of 100 μM and 1% DMSO. First, inhibitor was serially diluted to the desired range of concentrations in 2% DMSO buffer. Next, 25 μL, of inhibitor solutions at various concentrations in 2% DMSO Buffer was added to 25 μL, of 4.0 nM enzyme and allowed to incubate at 25° C. for 5 minutes. 50 μL of 200 μM and 1% DMSO substrate was then added and allowed to react for 20 minutes. 100 μL of stop solution was added to reaction mixture, and immediately mixed and aliquoted in 45 μL triplicates to a CORNING 384 well black plate. Fluorescence signal was measured in a BioTek Neo 2 Plate reader set at excitation and emission wavelengths of 355 and 450 nm, respectively. % Activity was subsequently calculated for each inhibitor concentration against the fluorescence signal of uninhibited HexA. […]

[3] = tested on: Total hHex; test: Inhibition of total hHex; type: biochemical, human; details: IC50 for total hHexA; NI = no inhibition detected at 200 μM

Structure (SMILES)	Ki [1]	IC50 [2]	IC50 [3]
CCNC(=S)N[C@H]1CN2/C(=N/Cc3ccccc3)SC[C@@H]2[C@@H](O)[C@@H]1O [Compound 18, 2-Ethylthioureido-5-N,6-S-(N′-benzyliminomethylidene)-1,2-dideoxy-6-thionojirimycin]	> 200 µM	> 200 µM	> 200 µM
CCCC(=O)N[C@H]1CN2/C(=N/Cc3ccccc3)SC[C@@H]2[C@@H](O)[C@@H]1O [Compound 17, 2-Butanamido-5-N,6-S-(N′-benzyliminomethylidene)-1,2-dideoxy-6-thionojirimycin]	> 200 µM	> 200 µM	> 200 µM
CCC(=O)N[C@H]1CN2/C(=N/Cc3ccc4[nH]ccc4c3)SC[C@@H]2[C@@H](O)[C@@H]1O [Compound 15, 2-Propionamido-5-N,6-S-(N′-5-indolylmethyliminomethylidene)-1,2-dideoxy-6-thionojirimycin hydrochloride]	> 200 µM	> 200 µM	> 200 µM
CC(C)C(=O)N[C@H]1CN2/C(=N/Cc3ccccc3)SC[C@@H]2[C@@H](O)[C@@H]1O [Compound 16, 2-Isobutanamido-5-N,6-S-(N′-benzyliminomethylidene)-1,2-dideoxy-6-thionojirimycin Hydrochloride]	> 200 µM	> 200 µM	> 200 µM

Now from value to compound:

Ki [1]	IC50 [2]	IC50 [3]	Structure (SMILES)
> 200 µM	> 200 µM	> 200 µM	CCCNC(=S)N[C@H]1CN2/C(=N/Cc3ccccc3)SC[C@@H]2[C@@H](O)[C@@H]1O [Compound 19, 2-Propylthioureido-5-N,6-S-(N′-benzyliminomethylidene)-1,2-dideoxy-6-thionojirimycin]
> 200 µM	> 200 µM	> 200 µM	CCC(=O)N[C@H]1CN2/C(=N/Cc3cccc4ccccc34)SC[C@@H]2[C@@H](O)[C@@H]1O [Compound 14, 2-Propionamido-5-N,6-S-(N′-1-naphthylmethyliminomethylidene)-1,2-dideoxy-6-thionojirimycin hydrochloride]
> 200 µM	> 200 µM	> 200 µM	CCC(=O)N[C@H]1CN2/C(=N/Cc3ccccc3)SC[C@@H]2[C@@H](O)[C@@H]1O [Compound 13, 2-Propanamido-5-N,6-S-(N′-benzyliminomethylidene)-1,2-dideoxy-6-thionojirimycin Hydrochloride]
